Test results taken from US20050112573A1, “Method of detecting toxic substance” (priority 2001, published 2005).

Test system: yeast genes (level of expressed mRNA)
Assay: DNA chip analysis of expressed mRNA of yeast genes after 2 h culture with a toxic chemical substance
Format: cell-based, Saccharomyces cerevisiae S288C
Details: for The level of expressed mRNA in the presence of chemical substance/ (ratio to absence of chemical substance): stress protein genes, DNA chip
Protocol: Yeast (Saccharomyces cerevtisiae S288C (α SUC2mal mel gap2 CUP1)) were cultured at 25° C. on YPD medium (yeast extract 1%, polypepton 2%, glucose 2%). One of toxic chemical substances was added to the cell at logarithmic growth phase, and the cell was further cultured for two hours. Cell was cultured without any chemical substance in the same condition, and was used as control. Concentrations of the chemical substances were defined to inhibit the growth of the yeast but not lead to death.
After the completion of cultivation, the culture was centrifuged to collect the cells. To the cells, sodium acetate buffer (50 mM sodium acetate, 10 mM EDTA, 1% SDS) was added, and the mixture was shaken at 65° C. for five minutes, followed by returning to room temperature, and obtaining the supernatant, which procedure was repeated two times. To the supernatant, ½ amount of a solution of phenol/chloroform was added, and the mixture was centrifuged to give a supernatant, which was added with an equal amount of chloroform, and the mixture was centrifuged to give a supernatant. To the supernatant, an equal amount of isopropanol containing 0.3 M sodium acetate was added, and the mixture was allowed to stand at room temperature for 30 minutes, after which the mixture was centrifuged to give a sediment of the whole RNAs. Seventy % ethanol was added to the sediment, and the mixture was again centrifuged to give a sediment, which was then dried and dissolved in water. mRNA was isolated from the whole RNAs as followings. In view of the fact that a poly A chain is attached to the 3′ terminus of mRNA, a polynucleotide having a poly T structure which was immobilized on the surface of latex beads was used to trap the mRNA, and then the mRNA was washed and eluted with spine column (Oligotex-dT30<Super>mRNA Purification Kit, Takara). Reverse transcription of the mRNA was conducted with a reverse transcriptase (Super Script II Reverse Transcriptase; catalogue No. 18064-014, GibcoBRL) using fluorescence-labeled nucleotides to give cDNAs that were introduced with Cy3-dUTP or Cy5-dUTP during the reverse transcription.
The labeled cDNAs were dissolved in TE buffer (10 mM Tris-HCl/1 mM EDTA, pH8.0), and the solution was dropped on the DNA chip containing the whole genes of yeast (DNA Chip Research Inc. Japan) so that the cDNAs were hybridized on the DNA chip at 65° C. for over 12 hours. The fluoresces intensity of the DNA chip was read with a scanner, and the ratio relative to the fluorescence intensity resulting from the absence of chemical substance was estimated as the following, which is shown in Tables 1 to 9: [formula]
In the Tables, “Intensity” indicated in the rightmost column is a value of the level of expressed mRNA of each gene in control cells as divided by the average level of the expressions of the whole genes.

Compound: CCCCCCCCCCCCOS(=O)(=O)[O-].[Na+] [(18), sodium lauryl sulfate]
- The level of expressed mRNA in the presence of chemical substance/The level of expressed mRNA in the absence of chemical substance (yeast gene YIL140W): 1.0
- The level of expressed mRNA in the presence of chemical substance/ (in its absence), gene YJL070C (yeast gene YJL070C, ratio of DNA chip fluorescence intensity to that without chemical substance): 1.2
- The level of expressed mRNA in the presence of chemical substance/The level of expressed mRNA in the absence of chemical substance (yeast gene YJL073W): 1.0
- The level of expressed mRNA in the presence of chemical substance/The level of expressed mRNA in the absence of chemical substance (yeast gene YJL089W): 1.1
- The level of expressed mRNA in the presence of chemical substance/ (ratio to absence), gene YJL096W (yeast gene YJL096W, mitochondria-located protein genes, 2 h culture with chemical): 1.2
- The level of expressed mRNA in the presence of chemical substance/The level of expressed mRNA in the absence of chemical substance (yeast gene YJL116C): 0.7
- The level of expressed mRNA in the presence of chemical substance/ (ratio to absence of chemical substance) (yeast gene YJL158C): 1.4
- The level of expressed mRNA in the presence of chemical substance/ (in its absence), gene YJL167W (yeast gene YJL167W, ratio of DNA chip fluorescence intensity to that without chemical substance): 2.1
- The level of expressed mRNA in the presence of chemical substance/ (ratio to absence), gene YJL180C (yeast gene YJL180C, mitochondria-located protein genes, 2 h culture with chemical): 1.4
- The level of expressed mRNA in the presence of chemical substance/ (in its absence), gene YJL216C (yeast gene YJL216C, ratio of DNA chip fluorescence intensity to that without chemical substance): 2.0
- The level of expressed mRNA in the presence of chemical substance/The level of expressed mRNA in the absence of chemical substance (yeast gene YJR004C): 0.4
- The level of expressed mRNA in the presence of chemical substance/The level of expressed mRNA in the absence of chemical substance (yeast gene YJR086W): 1.6
- The level of expressed mRNA in the presence of chemical substance/ (ratio to absence of chemical substance) (yeast gene YJR090C): 1.0
- The level of expressed mRNA in the presence of chemical substance/The level of expressed mRNA in the absence of chemical substance (yeast gene YKL008C): 1.9
- The level of expressed mRNA in the presence of chemical substance/The level of expressed mRNA in the absence of chemical substance (yeast gene YKL013C): 1.7
- The level of expressed mRNA in the presence of chemical substance/The level of expressed mRNA in the absence of chemical substance (yeast gene YKL039W): 1.3
- The level of expressed mRNA in the presence of chemical substance/The level of expressed mRNA in the absence of chemical substance (yeast gene YKL041W): 1.3
- The level of expressed mRNA in the presence of chemical substance/The level of expressed mRNA in the absence of chemical substance (yeast gene YKL096W): 0.7
- The level of expressed mRNA in the presence of chemical substance/ (ratio to absence of chemical substance) (yeast gene YKL164C): 0.8
- The level of expressed mRNA in the presence of chemical substance/The level of expressed mRNA in the absence of chemical substance (yeast gene YKL165C): 1.0
- The level of expressed mRNA in the presence of chemical substance/The level of expressed mRNA in the absence of chemical substance (yeast gene YKL193C): 2.3
- The level of expressed mRNA in the presence of chemical substance/ (in its absence), gene YKR009C (yeast gene YKR009C, ratio of DNA chip fluorescence intensity to that without chemical substance): 2.5
- The level of expressed mRNA in the presence of chemical substance/ (in its absence), gene YKR034W (yeast gene YKR034W, ratio of DNA chip fluorescence intensity to that without chemical substance): 1.0
- The level of expressed mRNA in the presence of chemical substance/ (ratio to absence of chemical substance) (yeast gene YKR053C): 2.4
- The level of expressed mRNA in the presence of chemical substance/ in its absence, gene YKR058W (yeast gene YKR058W, energy system protein genes, 2 h culture with the chemical, ratio to control without chemical): 1.6
- The level of expressed mRNA in the presence of chemical substance/ (in its absence), gene YLR006C (yeast gene YLR006C, ratio of DNA chip fluorescence intensity to that without chemical substance): 1.0
- The level of expressed mRNA in the presence of chemical substance/ (ratio to absence of chemical substance) (yeast gene YLR006C): 1.0
- The level of expressed mRNA in the presence of chemical substance/The level of expressed mRNA in the absence of chemical substance (yeast gene YLR120C): 2.9
- The level of expressed mRNA in the presence of chemical substance/The level of expressed mRNA in the absence of chemical substance (yeast gene YLR136C): 1.4
- The level of expressed mRNA in the presence of chemical substance/The level of expressed mRNA in the absence of chemical substance (yeast gene YLR178C): 3.6
- The level of expressed mRNA in the presence of chemical substance/The level of expressed mRNA in the absence of chemical substance (yeast gene YLR250W): 2.2
- The level of expressed mRNA in the presence of chemical substance/ in its absence, gene YLR295C (yeast gene YLR295C, energy system protein genes, 2 h culture with the chemical, ratio to control without chemical): 1.5
- The level of expressed mRNA in the presence of chemical substance/ (ratio to absence), gene YLR295C (yeast gene YLR295C, mitochondria-located protein genes, 2 h culture with chemical): 1.5
- The level of expressed mRNA in the presence of chemical substance/The level of expressed mRNA in the absence of chemical substance (yeast gene YLR327C): 5.3
- The level of expressed mRNA in the presence of chemical substance/ (in its absence), gene YLR351C (yeast gene YLR351C, ratio of DNA chip fluorescence intensity to that without chemical substance): 1.8
- The level of expressed mRNA in the presence of chemical substance/The level of expressed mRNA in the absence of chemical substance (yeast gene YLR356W): 1.0
- The level of expressed mRNA in the presence of chemical substance/The level of expressed mRNA in the absence of chemical substance (yeast gene YLR362W): 1.3
- The level of expressed mRNA in the presence of chemical substance/ (in its absence), gene YLR375W (yeast gene YLR375W, ratio of DNA chip fluorescence intensity to that without chemical substance): 1.0
- The level of expressed mRNA in the presence of chemical substance/The level of expressed mRNA in the absence of chemical substance (yeast gene YLR391W): 0.9
- The level of expressed mRNA in the presence of chemical substance/The level of expressed mRNA in the absence of chemical substance (yeast gene YLR429W): 0.9
- The level of expressed mRNA in the presence of chemical substance/ in its absence, gene YML129C (yeast gene YML129C, energy system protein genes, 2 h culture with the chemical, ratio to control without chemical): 1.3
- The level of expressed mRNA in the presence of chemical substance/ (ratio to absence), gene YML129C (yeast gene YML129C, mitochondria-located protein genes, 2 h culture with chemical): 1.3
- The level of expressed mRNA in the presence of chemical substance/The level of expressed mRNA in the absence of chemical substance (yeast gene YMR004W): 1.3
- The level of expressed mRNA in the presence of chemical substance/ (ratio to absence), gene YMR023C (yeast gene YMR023C, mitochondria-located protein genes, 2 h culture with chemical): 1.4
- The level of expressed mRNA in the presence of chemical substance/The level of expressed mRNA in the absence of chemical substance (yeast gene YMR094W): 1.0
- The level of expressed mRNA in the presence of chemical substance/The level of expressed mRNA in the absence of chemical substance (yeast gene YMR104C): 1.9
- The level of expressed mRNA in the presence of chemical substance/ (ratio to absence of chemical substance) (yeast gene YMR186W): 1.1
- The level of expressed mRNA in the presence of chemical substance/The level of expressed mRNA in the absence of chemical substance (yeast gene YMR219W): 0.9
- The level of expressed mRNA in the presence of chemical substance/The level of expressed mRNA in the absence of chemical substance (yeast gene YMR226C): 2.0
- The level of expressed mRNA in the presence of chemical substance/ in its absence, gene YMR267W (yeast gene YMR267W, energy system protein genes, 2 h culture with the chemical, ratio to control without chemical): 1.3
- The level of expressed mRNA in the presence of chemical substance/ (ratio to absence), gene YMR267W (yeast gene YMR267W, mitochondria-located protein genes, 2 h culture with chemical): 1.3
- The level of expressed mRNA in the presence of chemical substance/ in its absence, gene YMR267W (yeast gene YMR267W, ratio of DNA chip fluorescence intensity to that without chemical substance): 1.3
- The level of expressed mRNA in the presence of chemical substance/The level of expressed mRNA in the absence of chemical substance (yeast gene YMR275C): 0.7
- The level of expressed mRNA in the presence of chemical substance/The level of expressed mRNA in the absence of chemical substance (yeast gene YMR276W): 0.7
- The level of expressed mRNA in the presence of chemical substance/ (in its absence), gene YMR278W (yeast gene YMR278W, ratio of DNA chip fluorescence intensity to that without chemical substance): 1.5
- The level of expressed mRNA in the presence of chemical substance/ (in its absence), gene YMR293C (yeast gene YMR293C, ratio of DNA chip fluorescence intensity to that without chemical substance): 1.0
- The level of expressed mRNA in the presence of chemical substance/The level of expressed mRNA in the absence of chemical substance (yeast gene YMR314W): 1.6
